Among the data in patent US12606541B2, “PPARg modulators and methods of use” (Eisai R&D Management Co., Ltd., priority 2020, dated 2026) are IC50 and AC50 values, retold here.

The subject of one experiment is UM-UC-9 engineered cells. Description: Cell proliferation / short-term viability assay, CellTiter-Glo 144 h. In kind it is cell-based, human. The note with it: Homo sapiens, UM-UC-9, 144 h, read-out: CTGlo 144 h UMUC9.5, G150. A digest of the protocol:
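UM-UC-9 engineered assay-ready cells seeded at 500 cells/well in high-glucose DMEM/10% FBS, treated from dose-response plates, grown at 37° C, 5% CO2. CellTiter-Glo 2.0 luminescence read on day 7, with a day-0 pretreatment plate as T0 reference and DMSO wells as negative control.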

The target in a further experiment is T1, His6-TEV-PPARγ-(234-505) (Homo sapiens, UniProt P37231).
T1 construct: The His6-TEV-PPARγ-(234-505) protein for assay was expressed and purified; TEV cleavage site (N); made in house
T1 sequence (P37231 234-505): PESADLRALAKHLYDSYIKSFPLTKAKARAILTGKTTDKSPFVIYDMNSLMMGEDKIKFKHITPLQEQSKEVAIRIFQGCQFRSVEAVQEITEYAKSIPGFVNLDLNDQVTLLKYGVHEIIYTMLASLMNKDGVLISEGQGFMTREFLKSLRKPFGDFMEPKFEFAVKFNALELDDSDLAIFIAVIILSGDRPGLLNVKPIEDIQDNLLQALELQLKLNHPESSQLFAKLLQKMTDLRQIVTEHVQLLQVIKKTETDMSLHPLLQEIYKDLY
Description: TR-FRET Assay to Measure Co-R Peptide Recruitment to PPARγ. To be noted: Co-R peptide (SMRT-ID2) recruitment; top final concentration 20 μM; read-out: TR-FRET i-Ag; AC50. In kind it is biochemical. A digest of the protocol:
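His-tagged PPARγ (or controls) was preincubated with compound for 20 minutes at room temperature, then 5 nM anti-His terbium antibody and 200 nM FITC-labeled SMRT-ID2 corepressor peptide (final) were added for a further hour. TR-FRET signal was normalized to percent response using 500 nM T0070907 and DMSO controls.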

Some results are limits rather than exact numbers.

Take `COc1cc(-c2cc(C(=O)N3CC[C@H](C(=O)NCc4nc(N5C[C@@H](C)N(C)[C@@H](C)C5)oc4C(F)(F)F)CC34CC4)n[nH]2)c(F)cn1` [Example 485, (S)-4-(5-(5-fluoro-2-methoxypyridin-4-yl)-N-pyrazole-3-carbonyl)-N-((5-(trifluoromethyl)-2-((3S,5R)-3,4,5-trimethylpiperazin-1-yl)oxazol-4-yl)methyl)-4-azaspiro[2.5]octane-7-carboxamide]: in the experiment with UM-UC-9 engineered cells, the IC50 was 350 nM. Further, the AC50 at His6-TEV-PPARγ-(234-505) is 26.7 nM.
In the case of `COc1cc(-c2cc(C(=O)N3CC[C@H](C(=O)Nc4cnn5ccc(C#N)nc45)CC34CC4)n[nH]2)c(F)cn1` [Example 487, (S)—N-(5-cyanopyrazolo[1,5-a]pyrimidin-3-yl)-4-(5-(5-fluoro-2-methoxypyridin-4-yl)-1H-pyrazole-3-carbonyl)-4-azaspiro[2.5]octane-7-carboxamide], in the experiment with UM-UC-9 engineered cells, the IC50 turned out to be 2.4 nM. Further, at His6-TEV-PPARγ-(234-505), the AC50 amounted to 0.7 nM.
As for `COc1cc(-c2cc(C(=O)N3CC[C@H](C(=O)NC4CCN(c5ccc(C#N)nc5)C4)CC34CC4)n[nH]2)c(F)cn1` (stereo partly drawn) [Example 488, (7S)—N-(1-(6-cyanopyridin-3-yl)pyrrolidin-3-yl)-4-(5-(5-fluoro-2-methoxypyridin-4-yl)-1H-pyrazole-3-carbonyl)-4-azaspiro[2.5]octane-7-carboxamide], the IC50 in the experiment on UM-UC-9 engineered cells amounted to 6.6 nM. Besides, the AC50 on His6-TEV-PPARγ-(234-505) came out at 0.9 nM.
For `COc1cc(-c2cc(C(=O)N3CC[C@H](C(=O)NCc4ncc(OC(C)C)cc4Cl)CC34CC4)n[nH]2)c(F)cn1` [Example 491, (S)—N-((3-chloro-5-isopropoxypyridin-2-yl)methyl)-4-(5-(5-fluoro-2-methoxypyridin-4-yl)-1H-pyrazole-3-carbonyl)-4-azaspiro[2.5]octane-7-carboxamide], in the experiment on UM-UC-9 engineered cells, the IC50 was determined as 11 nM. The AC50 at His6-TEV-PPARγ-(234-505) came to 0.3 nM.
On the same counts, the results for `COc1cc(-c2cc(C(=O)N3CC[C@H](C(=O)Nc4cnn5cc(C(C)=O)ccc45)CC34CC4)n[nH]2)c(F)cn1` [Example 494, (S)—N-(6-acetylpyrazolo[1,5-a]pyridin-3-yl)-4-(5-(5-fluoro-2-methoxypyridin-4-yl)-1H-pyrazole-3-carbonyl)-4-azaspiro[2.5]octane-7-carboxamide] are 80.8 nM and 6.7 nM.
For the compound `COc1cc(-c2cc(C(=O)N3CC[C@H](C(=O)NC4CCC5(COC5)c5cccnc54)CC34CC4)n[nH]2)c(F)cn1` (stereo partly drawn) [Example 496, (7S)—N-(7′,8′-dihydro-6′H-spiro[oxetane-3,5′-quinolin]-8′-yl)-4-(5-(5-fluoro-2-methoxypyridin-4-yl)-1H-pyrazole-3-carbonyl)-4-azaspiro[2.5]octane-7-carboxamide], the IC50 in the experiment with UM-UC-9 engineered cells is 68.2 nM. In addition, the AC50 on His6-TEV-PPARγ-(234-505) turned out to be 9.6 nM.
In the case of `CCN1CC(NC(=O)[C@H]2CCN(C(=O)c3cc(-c4cc(OC)ncc4F)[nH]n3)C3(CC3)C2)CCC12COC2` (stereo partly drawn) [Example 497, (7S)—N-(5-ethyl-2-oxa-5-azaspiro[3.5]nonan-7-yl)-4-(5-(5-fluoro-2-methoxypyridin-4-yl)-1H-pyrazole-3-carbonyl)-4-azaspiro[2.5]octane-7-carboxamide], the IC50 in the experiment with UM-UC-9 engineered cells came out at 645 nM. Further, the AC50 at His6-TEV-PPARγ-(234-505) is 87.7 nM.
For the compound `COc1cc(-c2cc(C(=O)N3CC[C@H](C(=O)Nc4cnn5c4OC(C)(C)CC5)CC34CC4)n[nH]2)c(F)cn1` [Example 498, (S)—N-(5,5-dimethyl-6,7-dihydro-5H-pyrazolo[5,1-b][1,3]oxazin-3-yl)-4-(5-(5-fluoro-2-methoxypyridin-4-yl)-1H-pyrazole-3-carbonyl)-4-azaspiro[2.5]octane-7-carboxamide], in the experiment on UM-UC-9 engineered cells, the IC50 came to 21.9 nM. Besides, the AC50 on His6-TEV-PPARγ-(234-505) was 2.9 nM.
On the same counts, the results for `COc1cc(-c2cc(C(=O)N3CC[C@H](C(=O)NCC45COC(CN)(C4)C5)CC34CC4)n[nH]2)c(F)cn1` [Example 499, (S)—N-((1-(aminomethyl)-2-oxabicyclo[2.1.1]hexan-4-yl)methyl)-4-(5-(5-fluoro-2-methoxypyridin-4-yl)-1H-pyrazole-3-carbonyl)-4-azaspiro[2.5]octane-7-carboxamide] are more than 10000 nM and 294 nM.
In the case of `COc1cc(-c2cc(C(=O)N3CC[C@H](C(=O)NCc4cccnc4C(F)(F)F)CC34CC4)[nH]n2)c(F)cn1` [Example 500, (S)-4-(3-(5-fluoro-2-methoxypyridin-4-yl)-1H-pyrazole-5-carbonyl)-N-((2-(trifluoromethyl)pyridin-3-yl)methyl)-4-azaspiro[2.5]octane-7-carboxamide], the IC50 with UM-UC-9 engineered cells turned out to be 13.3 nM. In addition, the AC50 at His6-TEV-PPARγ-(234-505) turned out to be 7.5 nM.
Take `COc1cc(-c2cc(C(=O)N3CC[C@H](C(=O)NCc4[nH]cnc4C(F)(F)F)CC34CC4)[nH]n2)c(F)cn1` [Example 503, (S)-4-(3-(5-fluoro-2-methoxypyridin-4-yl)-1H-pyrazole-5-carbonyl)-N-((4-(trifluoromethyl)-1H-imidazol-5-yl)methyl)-4-azaspiro[2.5]octane-7-carboxamide]: the IC50 in the experiment with UM-UC-9 engineered cells stood at 146 nM. Also, on His6-TEV-PPARγ-(234-505), the AC50 is 8.1 nM.
For `COc1cc(-c2cc(C(=O)N3CC[C@H](C(=O)NCc4conc4C(F)(F)F)CC34CC4)[nH]n2)c(F)cn1` [Example 505, (S)-4-(3-(5-fluoro-2-methoxypyridin-4-yl)-1H-pyrazole-5-carbonyl)-N-((3-(trifluoromethyl)isoxazol-4-yl)methyl)-4-azaspiro[2.5]octane-7-carboxamide], in the experiment on UM-UC-9 engineered cells, the IC50 stood at 10.3 nM. At His6-TEV-PPARγ-(234-505), the AC50 came out at 6.9 nM.
As for `COc1cc(-c2cc(C(=O)N3CC[C@H](C(=O)NCc4c(C(F)(F)F)cnn4C)CC34CC4)[nH]n2)c(F)cn1` [Example 507, (S)-4-(3-(5-fluoro-2-methoxypyridin-4-yl)-1H-pyrazole-5-carbonyl)-N-((1-methyl-4-(trifluoromethyl)-1H-pyrazol-5-yl)methyl)-4-azaspiro[2.5]octane-7-carboxamide], in the experiment with UM-UC-9 engineered cells, the IC50 was determined as 14.1 nM. Moreover, the AC50 on His6-TEV-PPARγ-(234-505) turned out to be 17.4 nM.
Take `COc1cc(-c2cc(C(=O)N3CC[C@H](C(=O)NCc4nnn(C)c4C(F)(F)F)CC34CC4)[nH]n2)c(F)cn1` [Example 508, (S)-4-(3-(5-fluoro-2-methoxypyridin-4-yl)-1H-pyrazole-5-carbonyl)-N-((1-methyl-5-(trifluoromethyl)-1H-1,2,3-triazol-4-yl)methyl)-4-azaspiro[2.5]octane-7-carboxamide]: the IC50 in the experiment with UM-UC-9 engineered cells stood at 8.5 nM. Besides, the AC50 at His6-TEV-PPARγ-(234-505) stood at 5.6 nM.
On to `COc1cc(-c2cc(C(=O)N3CC[C@H](C(=O)NCc4cn(C)nc4C(F)(F)F)CC34CC4)[nH]n2)c(F)cn1` [Example 509, (S)-4-(3-(5-fluoro-2-methoxypyridin-4-yl)-1H-pyrazole-5-carbonyl)-N-((1-methyl-3-(trifluoromethyl)-1H-pyrazol-4-yl)methyl)-4-azaspiro[2.5]octane-7-carboxamide], for which the IC50 in the experiment on UM-UC-9 engineered cells was determined as 7 nM. Also, the AC50 at His6-TEV-PPARγ-(234-505) was 4.2 nM.
On to `COc1cc(-c2cc(C(=O)N3CC[C@H](C(=O)NCc4ncccc4C(F)(F)F)CC34CC4)[nH]n2)c(F)cn1` [Example 510, (S)-4-(3-(5-fluoro-2-methoxypyridin-4-yl)-1H-pyrazole-5-carbonyl)-N-((3-(trifluoromethyl)pyridin-2-yl)methyl)-4-azaspiro[2.5]octane-7-carboxamide], for which the IC50 in the experiment on UM-UC-9 engineered cells worked out at 1.8 nM. In addition, the AC50 at His6-TEV-PPARγ-(234-505) was found to be 3.8 nM.
